Experimental data published in PMC11904993, “Humanized Candida and NanoBiT Assays Expedite Discovery of Bdf1 Bromodomain Inhibitors With Antifungal Potential” (Advanced Science, 2025).
Values joined by “and” are separate entries in the source; they are usually repeats but may differ in a detail not shown here. Equal entries are not always repeated. Where two headings read alike, the source gives them in different places.

Assays:
C. auris Bdf1 BD2 = C. auris Bdf1 BD2 (Candidozyma auris (Candida auris), UniProt A0AAW0VEM6); assay: HTRF assay, inhibition of H4ac4 peptide binding
Sequence of C. auris Bdf1 BD2 (A0AAW0VEM6 entry or part of it): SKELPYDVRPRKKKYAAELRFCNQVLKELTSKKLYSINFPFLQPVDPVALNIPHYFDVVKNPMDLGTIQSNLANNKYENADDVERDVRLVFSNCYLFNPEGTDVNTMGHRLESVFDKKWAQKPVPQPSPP

C. auris Bdf1 BD1 = C. auris Bdf1 BD1 (Candidozyma auris (Candida auris), UniProt A0AAW0VEM6); assay: HTRF assay, inhibition of H4ac4 peptide binding
Sequence of C. auris Bdf1 BD1 (A0AAW0VEM6 entry or part of it): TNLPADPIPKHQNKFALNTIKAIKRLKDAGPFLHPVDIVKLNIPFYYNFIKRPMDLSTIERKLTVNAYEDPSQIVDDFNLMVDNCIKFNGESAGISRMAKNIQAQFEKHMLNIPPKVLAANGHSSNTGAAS

[1] = tested on: IMR90 (primary fibroblast) cells; settings: highest concentration tested (300 µM); 24 h
Experimental: Cytotoxicity assays were performed as described^[ [1] ^] with minor changes. Proliferation of human cells was assessed using an MTT colorimetric assay (Cell Proliferation Kit I, Roche). HeLa (epithelial cells, ATCC number CCL‐2) and IMR90 (primary fibroblasts cells, ATCC number CCL‐186) cells were cultured in humidified atmosphere (37 °C and 5% CO2) in DMEM medium containing 10% heat inactivated fetal calf serum and 2 mM glutamine. […] Plates were incubated at 37 °C and 5% CO2 for 24 h before adding 10 mL of MTT labelling reagent (final concentration 0.5 mg mL^−1) to each well. After incubating for a further 4 h, 100 µL of the solubilization solution were added in each well. Plates were allowed to stand overnight in the incubator before measuring the absorbance at 570 nm and at 690 nm in a ClarioStar plate reader. The values of A570–A690 nm were normalized relative to that obtained with vehicle (0.2% DMSO, 0.8% ethanol) and plotted against compound concentration.

Bdf1/Swc4 = molecular target: T1, Bdf1/Swc4 (Saccharomyces cerevisiae, UniProt P35817); assay: NanoBiT assay, control pair; format: cell-based, S. cerevisiae; parameters: remaining activity: dose or concentration left out as unconfirmed
T1 construct: expressed in transfected cells; host or cells: S. cerevisiae
T1 sequence (P35817 whole entry): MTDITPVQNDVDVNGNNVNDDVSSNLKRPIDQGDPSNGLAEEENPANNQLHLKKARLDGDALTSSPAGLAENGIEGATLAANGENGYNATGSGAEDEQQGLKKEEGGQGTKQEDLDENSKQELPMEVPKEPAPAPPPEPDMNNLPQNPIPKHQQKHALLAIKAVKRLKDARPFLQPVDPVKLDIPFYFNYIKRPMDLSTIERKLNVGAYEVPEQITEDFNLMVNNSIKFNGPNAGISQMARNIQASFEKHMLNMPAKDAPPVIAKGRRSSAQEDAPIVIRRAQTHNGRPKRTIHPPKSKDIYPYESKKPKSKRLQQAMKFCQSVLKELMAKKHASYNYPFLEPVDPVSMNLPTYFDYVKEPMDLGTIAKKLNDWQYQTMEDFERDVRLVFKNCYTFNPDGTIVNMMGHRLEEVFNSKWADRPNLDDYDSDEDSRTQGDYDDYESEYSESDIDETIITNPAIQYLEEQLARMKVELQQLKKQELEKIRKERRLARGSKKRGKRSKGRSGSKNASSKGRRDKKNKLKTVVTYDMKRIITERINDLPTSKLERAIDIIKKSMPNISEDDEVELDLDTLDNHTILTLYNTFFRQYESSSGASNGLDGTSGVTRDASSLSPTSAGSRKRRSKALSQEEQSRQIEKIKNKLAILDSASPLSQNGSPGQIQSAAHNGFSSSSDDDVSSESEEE
T1 sequence (P53201 whole entry, further chain): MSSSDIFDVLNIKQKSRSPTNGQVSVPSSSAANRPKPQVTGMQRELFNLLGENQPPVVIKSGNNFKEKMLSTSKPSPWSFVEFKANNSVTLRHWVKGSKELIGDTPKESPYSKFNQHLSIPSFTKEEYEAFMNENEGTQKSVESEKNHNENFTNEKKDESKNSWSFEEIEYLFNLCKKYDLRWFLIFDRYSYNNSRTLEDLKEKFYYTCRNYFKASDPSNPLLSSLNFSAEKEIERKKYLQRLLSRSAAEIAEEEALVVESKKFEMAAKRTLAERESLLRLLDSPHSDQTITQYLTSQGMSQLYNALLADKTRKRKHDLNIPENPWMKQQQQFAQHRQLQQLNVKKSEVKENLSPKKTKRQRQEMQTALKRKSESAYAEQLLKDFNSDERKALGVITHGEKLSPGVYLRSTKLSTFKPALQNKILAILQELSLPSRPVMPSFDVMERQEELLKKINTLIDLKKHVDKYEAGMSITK
Experimental: Yeast strains were distributed in 96‐well microplates containing SC(MSG)‐U medium (SC‐U medium with 0.1% monosodium glutamate instead of ammonium sulfate as a nitrogen source) and grown at 30 °C. 40 µL of exponentially growing cells were transferred in white 96‐well half‐area microplates (ProxiPlate Plus, Greiner Bio‐One) previously filled with 40 µL per well of SC(MSG) containing 100 µM furimazine. The microplates were then incubated for 10 min in the dark before the luminescence signals were recorded using a microplate reader (Ensight, PerkinElmer). Luminescence measurements were performed for 1 s per well at a distance of 0.1 mm between the plate and the detector. The luminescence values were normalized with the optical density (OD600) of the corresponding cultures. For NanoBiT assays with BET inhibitors, yeast cultures were grown overnight at 30 °C in SC(MSG) medium in the presence of serial dilutions of 24c and I‐BET726. Overnight cultures were diluted 5 fold in SC(MSG) and incubated for 1 h before luminescence was recorded as previously indicated. Luminescence values for each condition were normalized using the average of the luminescence recorded for the Bdf1/Swc4 and Bmh1/Bmh2 controls.

CgBdf1 BD1 = CgBdf1 BD1 (Candida glabrata, UniProt Q6FWV7); assay: HTRF assay, inhibition of H4ac4 peptide binding; parameters: species or system C. glabrata; settings: for %HTRF Signal Cg Bdf1 BD1: 240 min
Sequence of CgBdf1 BD1 (Q6FWV7 entry or part of it): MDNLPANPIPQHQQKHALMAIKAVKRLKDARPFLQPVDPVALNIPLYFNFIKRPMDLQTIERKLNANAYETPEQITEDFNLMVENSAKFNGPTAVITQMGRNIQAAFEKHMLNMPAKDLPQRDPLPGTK

[2] = tested on: C. glabrata expressing humanized Bdf1 (Brd4 BDs); assay: Growth inhibition in liquid media, humanized C. glabrata strains; settings: Fig 3D; 50 µM; humanized BDF1-flag; Exp 1-3
Experimental: Growth on Liquid Media with C. glabrata Lab Strains: Cells were grown at 30 °C in SC+M+C‐U medium (SC medium with 5 mM methionine, 0.25 mM cysteine, without uracil) to an OD600 of 0.5–0.8. […] Plates were incubated at 30 °C and OD600 was measured using a Multiskan FC Microplate Photometer (Thermo Fisher).

Cc1ccc(-c2nnc(C)c(NCc3ccc(C)o3)n2)cc1 [Compound 24c, 6‐methyl‐N‐((5‐methylfuran‐2‐yl)methyl)‐3‐(p‐tolyl)‐1,2,4‐triazin‐5‐amine] gave a remaining activity at 0.0021 µM (C. auris Bdf1 BD2; CauBD2, 24c 0.0021 microM, Exp1-3, read-out: Percent HTRF Signal) of 100%, a remaining activity at 0.0052 µM (C. auris Bdf1 BD2; CauBD2, 24c 0.0052 microM, Exp1-3, read-out: Percent HTRF Signal) of 94.4% and a remaining activity at 0.013 µM (C. auris Bdf1 BD2; CauBD2, 24c 0.013 microM, Exp1-3, read-out: Percent HTRF Signal) of 99.2%. For the same molecule, the remaining activity at 0.033 µM (C. auris Bdf1 BD2; CauBD2, 24c 0.033 microM, Exp1-3, read-out: Percent HTRF Signal) was 100%, the remaining activity at 0.082 µM (C. auris Bdf1 BD2; CauBD2, 24c 0.082 microM, Exp1-3, read-out: Percent HTRF Signal) was 106% and the remaining activity at 0.2 µM (C. auris Bdf1 BD2; CauBD2, 24c 0.20 microM, Exp1-3, read-out: Percent HTRF Signal) was 105%. The remaining activity at […] (C. auris Bdf1 BD2; CauBD2, 24c 0.51 microM, Exp1-3, read-out: Percent HTRF Signal) was 99.5%, the remaining activity at 1.28 µM (C. auris Bdf1 BD2; CauBD2, 24c 1.28 microM, Exp1-3, read-out: Percent HTRF Signal) was 100% and the remaining activity at 3.2 µM (C. auris Bdf1 BD2; CauBD2, 24c 3.20 microM, Exp1-3, read-out: Percent HTRF Signal) was 98.7%. The remaining activity at 8 µM (C. auris Bdf1 BD2; CauBD2, 24c 8.00 microM, Exp1-3, read-out: Percent HTRF Signal) was 84%, the remaining activity at 20 µM (C. auris Bdf1 BD2; CauBD2, 24c 20.00 microM, Exp1-3, read-out: Percent HTRF Signal) was 79.1% and the “inhibition of Bdf1 BD2 from C. auris” value (C. auris Bdf1 BD2; HTRF, Fig S9C) was “weakly inhibited”. The remaining activity at 0.0021 µM (C. auris Bdf1 BD1; CauBD1, 24c 0.0021 microM, Exp1-3, read-out: Percent HTRF Signal) was 100%, the remaining activity at 0.0052 µM (C. auris Bdf1 BD1; CauBD1, 24c 0.0052 microM, Exp1-3, read-out: Percent HTRF Signal) was 94.1% and the remaining activity at 0.013 µM (C. auris Bdf1 BD1; CauBD1, 24c 0.013 microM, Exp1-3, read-out: Percent HTRF Signal) was 99.7%. It also gave a remaining activity at 0.033 µM (C. auris Bdf1 BD1; CauBD1, 24c 0.033 microM, Exp1-3, read-out: Percent HTRF Signal) of 98.7%, a remaining activity at 0.082 µM (C. auris Bdf1 BD1; CauBD1, 24c 0.082 microM, Exp1-3, read-out: Percent HTRF Signal) of 99.6% and a remaining activity at 0.2 µM (C. auris Bdf1 BD1; CauBD1, 24c 0.20 microM, Exp1-3, read-out: Percent HTRF Signal) of 104%. The remaining activity at […] (C. auris Bdf1 BD1; CauBD1, 24c 0.51 microM, Exp1-3, read-out: Percent HTRF Signal) was 96.3%, the remaining activity at 1.28 µM (C. auris Bdf1 BD1; CauBD1, 24c 1.28 microM, Exp1-3, read-out: Percent HTRF Signal) was 91.7% and the remaining activity at 3.2 µM (C. auris Bdf1 BD1; CauBD1, 24c 3.20 microM, Exp1-3, read-out: Percent HTRF Signal) was 84.9%. The remaining activity at 8 µM (C. auris Bdf1 BD1; CauBD1, 24c 8.00 microM, Exp1-3, read-out: Percent HTRF Signal) was 83.4%, the remaining activity at 20 µM (C. auris Bdf1 BD1; CauBD1, 24c 20.00 microM, Exp1-3, read-out: Percent HTRF Signal) was 64.7% and the “inhibition of Bdf1 BD1 from C. auris” value (C. auris Bdf1 BD1; HTRF, Fig S9C) was “weakly inhibited”. For the same molecule, the “cytotoxicity toward IMR90 cells (MTT)” value [1] was “modest cytotoxicity”, the remaining activity at 195.3 µM (Bdf1/Swc4; Bdf1-SmBiT, Swc4-LgBiT, 0.1953 mM, Fig 4C, read-out: Normalized nanoBiT signal) was 93% and the remaining activity at 390.6 µM (Bdf1/Swc4; Bdf1-SmBiT, Swc4-LgBiT, 0.3906 mM, Fig 4C, read-out: Normalized nanoBiT signal) was 104%. The remaining activity at 781.3 µM (Bdf1/Swc4; Bdf1-SmBiT, Swc4-LgBiT, 0.7813 mM, Fig 4C, read-out: Normalized nanoBiT signal) was 108%, the remaining activity at 1562.5 µM (Bdf1/Swc4; Bdf1-SmBiT, Swc4-LgBiT, 1.5625 mM, Fig 4C, read-out: Normalized nanoBiT signal) was 100% and the remaining activity at 3125 µM (Bdf1/Swc4; Bdf1-SmBiT, Swc4-LgBiT, 3.1250 mM, Fig 4C, read-out: Normalized nanoBiT signal) was 101%. For the same molecule, the remaining activity (Bdf1/Swc4; Bdf1-SmBiT, Swc4-LgBiT, […], Fig 4C, read-out: Normalized nanoBiT signal) was 96%, the “inhibition of NanoBiT signal, Bdf1/Swc4” value (Bdf1/Swc4; control pair independent of Bdf1 BDs) was “not observed” and the activity at 0.002 µM (CgBdf1 BD1; 4 h, Fig 2E, 0.002 microM, read-out: %HTRF Signal Cg Bdf1 BD1) was 102%. For the same molecule, the activity at 0.005 µM (CgBdf1 BD1; 4 h, Fig 2E, 0.005 microM, read-out: %HTRF Signal Cg Bdf1 BD1) was 97.9%, the activity at 0.013 µM (CgBdf1 BD1; 4 h, Fig 2E, 0.013 microM, read-out: %HTRF Signal Cg Bdf1 BD1) was 101% and the activity at 0.033 µM (CgBdf1 BD1; 4 h, Fig 2E, 0.033 microM, read-out: %HTRF Signal Cg Bdf1 BD1) was 96.4%. It also gave an activity at 0.082 µM (CgBdf1 BD1; 4 h, Fig 2E, 0.082 microM, read-out: %HTRF Signal Cg Bdf1 BD1) of 98%, an activity at 0.205 µM (CgBdf1 BD1; 4 h, Fig 2E, 0.205 microM, read-out: %HTRF Signal Cg Bdf1 BD1) of 97.5% and an activity at 0.512 µM (CgBdf1 BD1; 4 h, Fig 2E, 0.512 microM, read-out: %HTRF Signal Cg Bdf1 BD1) of 94.4%. It also gave an activity at 1.28 µM (CgBdf1 BD1; 4 h, Fig 2E, 1.280 microM, read-out: %HTRF Signal Cg Bdf1 BD1) of 88.7%, an activity at 3.2 µM (CgBdf1 BD1; 4 h, Fig 2E, 3.200 microM, read-out: %HTRF Signal Cg Bdf1 BD1) of 75% and an activity at 8 µM (CgBdf1 BD1; 4 h, Fig 2E, 8.000 microM, read-out: %HTRF Signal Cg Bdf1 BD1) of 48.9%. The activity at 20 µM (CgBdf1 BD1; 4 h, Fig 2E, 20.000 microM, read-out: %HTRF Signal Cg Bdf1 BD1) was 25.2%, the IC50 (CgBdf1 BD1; Fig 2C original data, analogs of 24, single experiments Exp1-3, read-out: pIC50 CgBD1 (converted)) was 8.28 µM and 7.31 µM and 9.27 µM and the “%HTRF Signal Cg Bdf1 BD1” value (CgBdf1 BD1; Fig 2E, 0.002 microM) was 102.33% and 103.65%. The “%HTRF Signal Cg Bdf1 BD1” value (CgBdf1 BD1; Fig 2E, 0.005 microM) was 104.91% and 102.28%, the “%HTRF Signal Cg Bdf1 BD1” value (CgBdf1 BD1; Fig 2E, 0.013 microM) was 100.44% and 101.24% and the “%HTRF Signal Cg Bdf1 BD1” value (CgBdf1 BD1; Fig 2E, 0.033 microM) was 102.26% and 102.17%. For the same molecule, the “%HTRF Signal Cg Bdf1 BD1” value (CgBdf1 BD1; Fig 2E, 0.082 microM) was 100.01% and 99.64%, the “%HTRF Signal Cg Bdf1 BD1” value (CgBdf1 BD1; Fig 2E, 0.205 microM) was 100.01% and 98.57% and the “%HTRF Signal Cg Bdf1 BD1” value (CgBdf1 BD1; Fig 2E, 0.512 microM) was 94.98% and 94.31%. For the same molecule, the “%HTRF Signal Cg Bdf1 BD1” value (CgBdf1 BD1; Fig 2E, 1.280 microM, 1.28 µM) was 89.76% and 89.41%, the “%HTRF Signal Cg Bdf1 BD1” value (CgBdf1 BD1; Fig 2E, 3.200 microM, 3.2 µM) was 77.27% and 82.10% and the “%HTRF Signal Cg Bdf1 BD1” value (CgBdf1 BD1; Fig 2E, 8.000 microM) was 45.31% and 53.86%. The “%HTRF Signal Cg Bdf1 BD1” value (CgBdf1 BD1; Fig 2E, 20.000 microM) was 17.43% and 18.98%, the IC50 (CgBdf1 BD1; Fig 2E, mean and s.d., three independent experiments, read-out: IC50 (μM) CgBD1) was 8.28 µM and 8 µM and the “fold drop in CgBD1 inhibition” value (CgBdf1 BD1; relative to 24, thiophenyl replaced by furyl or methylfuryl) was 4 fold. The “%Growth” value [2] was 82.6% and 80.3% and 69.6%.
